IC50 data for 35 compounds are collected here from ChEMBL document CHEMBL3112458, “A biochemical screen for GroEL/GroES inhibitors” (Bioorg Med Chem Lett, 2014).

Structures are written as SMILES.

In test [1] the target is T1, E. coli GroEL/ES (Escherichia coli, UniProt P0A6F5). The test can be described thus: Inhibition of Escherichia coli GroEL/GroES-ATPase activity expressed in Escherichia coli DH5alpha/BL21 (DE3) assessed as inhibition of denatured MDH refolding preincubated for 10 mins followed by ATP addition measured after 2 hrs by fluorescence based assay.
Test [2] deals with T1, E. coli GroEL/ES. The test can be described thus: Inhibition of Escherichia coli GroEL/GroES expressed in Escherichia coli DH5alpha/BL21 (DE3) assessed as inhibition of denatured MDH refolding preincubated for 10 mins followed by ATP addition measured after 2 hrs by fluorescence based assay.
Test [3] in a line: Inhibition of pig heart MDH using […] as substrate. Details: species or system Sus scrofa.

T1 sequence (P0A6F5 whole entry, looked up): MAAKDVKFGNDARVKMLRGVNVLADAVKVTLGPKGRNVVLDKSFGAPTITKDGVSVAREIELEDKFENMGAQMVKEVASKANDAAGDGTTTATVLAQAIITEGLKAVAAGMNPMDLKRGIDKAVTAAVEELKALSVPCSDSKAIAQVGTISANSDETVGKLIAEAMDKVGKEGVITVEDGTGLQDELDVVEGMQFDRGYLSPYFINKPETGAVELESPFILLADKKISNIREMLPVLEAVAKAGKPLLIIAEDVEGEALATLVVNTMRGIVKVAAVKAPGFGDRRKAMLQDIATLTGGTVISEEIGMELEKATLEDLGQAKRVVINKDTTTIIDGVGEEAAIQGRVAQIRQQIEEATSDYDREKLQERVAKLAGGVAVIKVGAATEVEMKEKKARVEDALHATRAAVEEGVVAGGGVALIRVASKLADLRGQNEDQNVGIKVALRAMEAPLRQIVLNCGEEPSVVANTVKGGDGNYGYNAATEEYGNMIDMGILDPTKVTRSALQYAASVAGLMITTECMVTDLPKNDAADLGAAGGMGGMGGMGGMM

Turning to `O=C1NC(=S)N(c2ccc(F)cc2)C(=O)/C1=C/c1ccco1`, the IC50 at E. coli GroEL/ES [1] was 25 µM; on E. coli GroEL/ES [2] it was 1.2 µM; in test [3], 20 µM.

As for `O=C(NCCO)Nc1ccc2nc(-c3ccco3)c(-c3ccco3)nc2c1`, the IC50 on E. coli GroEL/ES [1] is above 250 µM; on E. coli GroEL/ES [2], 23 µM; in test [3], above 62.5 µM.

For `O=C(Nc1ccc2nc(-c3ccco3)c(-c3ccco3)nc2c1)N1CCCC1`, the values for the IC50 (at E. coli GroEL/ES [1]; at E. coli GroEL/ES [2]; in test [3]) were above 250 µM, 14 µM and above 62.5 µM, respectively.

Consider `O=C(Nc1ccc(Sc2nc3ccccc3s2)c(Cl)c1)c1cc(Br)cc(Br)c1O`, for which the IC50 turned out to be 13 µM at E. coli GroEL/ES [1], 1.7 µM on E. coli GroEL/ES [2] and 5.5 µM in test [3].

For `CNC(=O)Nc1ccc2nc(-c3ccco3)c(-c3ccco3)nc2c1`, the IC50 on E. coli GroEL/ES [1] was above 250 µM; at E. coli GroEL/ES [2], 5.4 µM; in test [3] it was above 62.5 µM.

For `Oc1ccc(NCn2nnc3ccccc32)cc1`, the IC50 is 130 µM on E. coli GroEL/ES [1], 55 µM at E. coli GroEL/ES [2] and above 62.5 µM in test [3].

Turning to `Cc1ccc(C)n1-c1ccc(O)c(C(=O)O)c1`, the IC50 on E. coli GroEL/ES [1] was above 250 µM; at E. coli GroEL/ES [2], 0.62 µM; in test [3] it was above 62.5 µM.

As for `O=c1/c(=C/c2ccc(O)c(O)c2)sc2nc3ccccc3n12`, the IC50 was 9.8 µM at E. coli GroEL/ES [1], 1.3 µM at E. coli GroEL/ES [2] and above 62.5 µM in test [3].

With `Nc1ccc(Nc2nc(-c3ccc(O)c(O)c3)cs2)cc1`, the half-maximal inhibitory concentration (IC50) on E. coli GroEL/ES [1] was 23 µM; at E. coli GroEL/ES [2], 5.9 µM; in test [3], above 62.5 µM.

As for `Cc1ccc(S(=O)(=O)Nc2ccc(-c3nc4ccc(NS(=O)(=O)c5ccc(C)cc5)cc4[nH]3)cc2)cc1`, the IC50 at E. coli GroEL/ES [1] is 0.06 µM; at E. coli GroEL/ES [2] it was 0.11 µM; in test [3] it was above 62.5 µM.

Turning to `O=C(O)c1ccc(-c2nc(-c3ccc(-c4ccc(-c5nc(-c6ccc(C(=O)O)cc6)[nH]c5-c5ccccc5)cc4)cc3)c(-c3ccccc3)[nH]2)cc1`, the IC50 was 25 µM on E. coli GroEL/ES [1], 0.44 µM at E. coli GroEL/ES [2] and 57 µM in test [3].

As for `O=C1NC(=S)N(Cc2ccco2)C(=O)/C1=C\c1ccc(-c2ccc([N+](=O)[O-])cc2)o1`, the figures for the IC50 (at E. coli GroEL/ES [1]; at E. coli GroEL/ES [2]; in test [3]) were 150 µM, 0.7 µM and 19 µM, respectively.

On to `O=C1/C(=C/c2ccc(O)c(O)c2)SC(=S)N1c1ccc(O)cc1`, for which the IC50 at E. coli GroEL/ES [1] is 3.3 µM; on E. coli GroEL/ES [2], 0.99 µM; in test [3], above 62.5 µM.

Consider `O=C(/C=C/c1cccc([N+](=O)[O-])c1)c1ccc(NC(=O)c2ccco2)cc1`, for which the IC50 is above 250 µM on E. coli GroEL/ES [1], 1.8 µM at E. coli GroEL/ES [2] and above 62.5 µM in test [3].

Regarding `O=C(/C=C/c1ccc([N+](=O)[O-])cc1)c1ccc(O)c(O)c1`, the IC50 was 71 µM at E. coli GroEL/ES [1], 2.4 µM at E. coli GroEL/ES [2] and above 62.5 µM in test [3].

In the case of `O=C(O)c1cccc2c1NC(c1cccc(Br)c1)C1CC=CC21` (stereo not given), the IC50 on E. coli GroEL/ES [1] amounted to 44 µM; at E. coli GroEL/ES [2] it was 2.7 µM; in test [3], 50 µM.

As to `O=C(O)C1Nc2ccc(Cl)cc2C2C=CCC12` (stereo not given), the IC50 on E. coli GroEL/ES [1] is 68 µM; on E. coli GroEL/ES [2], 2.7 µM; in test [3] it was above 62.5 µM.

Take `CN(C)c1ccc(/C=C2/C(=O)NC(=S)N(Cc3ccco3)C2=O)cc1`: the IC50 at E. coli GroEL/ES [1] is 169 µM; at E. coli GroEL/ES [2] it was 5.9 µM; in test [3], above 62.5 µM.

In the case of `Cc1ccc(/C=C2/SC(=S)N(c3ccc(C(=O)O)c(O)c3)C2=O)o1`, the IC50 at E. coli GroEL/ES [1] was 48 µM; on E. coli GroEL/ES [2], 6.1 µM; in test [3], above 62.5 µM.

Turning to `Cn1c(=O)c(C(=O)Nc2ccncc2)c(O)c2ccccc21`, the IC50 at E. coli GroEL/ES [1] is above 250 µM; at E. coli GroEL/ES [2] it was 7.3 µM; in test [3] it was above 62.5 µM.

As for `COC(=O)c1ccc(-c2ccc(/C=C3/SC(=S)NC3=O)o2)cc1`, the results for the IC50 (on E. coli GroEL/ES [1]; at E. coli GroEL/ES [2]; in test [3]) were 131 µM, 8.4 µM and above 62.5 µM, respectively.

On to `O=c1c([N+](=O)[O-])c(Cl)c2ccccc2n1Cc1ccccc1`, for which the half-inhibitory concentration (IC50) on E. coli GroEL/ES [1] is above 250 µM; on E. coli GroEL/ES [2] it was 8.8 µM; in test [3], above 62.5 µM.

As to `O=C(O)c1cccc2c1NC(c1ccccc1F)C1CC=CC21` (stereo not given), the IC50 is 95 µM on E. coli GroEL/ES [1], 9.1 µM on E. coli GroEL/ES [2] and above 62.5 µM in test [3].

For the compound `O=c1[nH]nc2cc(O)c3ccccc3n12`, the IC50 on E. coli GroEL/ES [1] is above 250 µM; at E. coli GroEL/ES [2], 11 µM; in test [3] it was above 62.5 µM.

As to `O=C(/C=C/c1ccco1)c1ccc(NC(=O)c2cccs2)cc1`, the results for the IC50 (on E. coli GroEL/ES [1]; on E. coli GroEL/ES [2]; in test [3]) were 157 µM, 17 µM and above 62.5 µM, respectively.

In the case of `CCOc1ccc(N2C(=O)NC(=O)/C(=C/c3ccc(O)c(O)c3)C2=O)cc1`, the IC50 at E. coli GroEL/ES [1] is 217 µM; at E. coli GroEL/ES [2] it was 24 µM; in test [3] it was above 62.5 µM.

In the case of `COc1cccc(/C=C2/SC(=S)N(CCC(=O)Nc3ccc(O)cc3)C2=O)c1`, the IC50 is above 250 µM at E. coli GroEL/ES [1], 33 µM at E. coli GroEL/ES [2] and above 62.5 µM in test [3].

On to `CNC(=O)Oc1c(Br)cc2sc(=O)oc2c1Br`, for which the IC50 on E. coli GroEL/ES [1] was 236 µM; on E. coli GroEL/ES [2] it was 35 µM; in test [3], above 62.5 µM.

Regarding `O=C(Nc1cc([N+](=O)[O-])ccc1O)c1ccc2c(c1)C(=O)N(Cc1ccccc1)C2=O`, the IC50 at E. coli GroEL/ES [1] is above 250 µM; on E. coli GroEL/ES [2] it was 52 µM; in test [3] it was above 62.5 µM.

In the case of `COc1ccc(C(=O)N/N=C/c2ccc(O)c3ncccc23)cc1`, the IC50 at E. coli GroEL/ES [1] was above 250 µM; at E. coli GroEL/ES [2], 70 µM; in test [3] it was above 62.5 µM.

`O=C(CC1Nc2cccc3cccc(c23)NC1=O)Nc1cccc([N+](=O)[O-])c1` (stereo not given): the IC50 at E. coli GroEL/ES [1] was 52 µM; on E. coli GroEL/ES [2] it was 97 µM; in test [3] it was above 62.5 µM.

As to `CC(=O)c1cc2c(cc1NC(=O)c1ccccc1Br)OCCO2`, the IC50 is above 250 µM at E. coli GroEL/ES [1], above 100 µM on E. coli GroEL/ES [2] and above 62.5 µM in test [3].

In the case of `COc1cc(/C=C2/C(=N)N3N=C(CC(C)C)SC3=NC2=O)ccc1OC(=O)c1ccc(F)cc1`, the IC50 at E. coli GroEL/ES [1] was above 250 µM; on E. coli GroEL/ES [2] it was above 100 µM; in test [3] it was above 62.5 µM.

Regarding `Nc1nnc(SCC(=O)c2ccc(-c3ccccc3)cc2)s1`, the IC50 at E. coli GroEL/ES [1] was above 250 µM; at E. coli GroEL/ES [2], above 100 µM; in test [3], above 62.5 µM.

For `Cc1ccc(-c2ccc(NC(=O)/C=C/c3ccco3)cc2)o1`, the 50% inhibitory concentration (IC50) at E. coli GroEL/ES [1] is above 250 µM; at E. coli GroEL/ES [2], above 100 µM; in test [3] it was above 62.5 µM.

What is called IC50 is the concentration that inhibits the measured activity by half.
